# Measurements: US20080292561A1, “Pyrazolo-Pyrimidine Derivatives as Anti-Inflammatory Agents” (Glaxo Group Limited, priority 2005, published 2008)
# System: NFkB activity
# Assay: Glucocorticoid mediated transrepression of NFkB activity (A549 cells, ELAM promoter alkaline phosphatase reporter, TNFα)
# Format: cell-based
# Conditions: Homo sapiens, A549, 16 h, Human A549 lung epithelial cells, 3 ng/ml human recombinant TNFα, read-out: pIC50, transrepression of NFkB activity (converted)
# Text: Human A549 lung epithelial cells were engineered to contain a secreted placental alkaline phosphatase gene under the control of the distal region of the NFkB dependent ELAM promoter as previously described in Ray, K. P., Farrow, S., Daly, M., Talabot, F. and Searle, N. “Induction of the E-selectin promoter by interleukin 1 and tumour necrosis factor alpha, and inhibition by glucocorticoids” Biochemical Journal (1997) 328: 707-15.
# Compounds were solvated and diluted in DMSO, and transferred directly into assay plates such that the final concentration of DMSO was 0.7%. Following the addition of cells (40K per well), plates were incubated for 1 hr prior to the addition of 3 ng/ml human recombinant TNFα. Following continued incubation for 16 hr, alkaline phosphatase activity was determined by measuring the change in optical density at 405 nm with time following the addition of 0.7 volumes of assay buffer (1 mg/ml p-nitrophenylphosphate dissolved in 1M diethanolamine, 0.28M NaCl, 0.5 mM MgCl2). Dose response curves were constructed from which EC50 values were estimated.
row,IC50,SMILES
1,< 100 nM,"CCc1nc(NCC(O)(CC(C)(C)c2cc(F)ccc2OC)C(F)(F)F)c2cnn(-c3ccccc3)c2n1 (stereo not shown) [Example 26, 2-{[(6-Ethyl-1-phenyl-1H-pyrazolo[3,4-d]pyrimidin-4-yl)amino]methyl}-1,1,1-trifluoro-4-[5-fluoro-2-(methyloxy)phenyl]-4-methyl-2-pentanol]"
2,< 100 nM,"COc1ccc(F)cc1C(C)(C)CC(O)(CNc1nc(C)nc2c1cnn2-c1cccc(C#N)c1)C(F)(F)F (stereo not shown) [Example 27, 3-(4-{[4-[5-Fluoro-2-(methyloxy)phenyl]-2-hydroxy-4-methyl-2-(trifluoromethyl)pentyl]amino}-6-methyl-1H-pyrazolo[3,4-d]pyrimidin-1-yl)benzonitrile]"
3,< 100 nM,"CCc1nc(NCC(O)(CC(C)(C)c2cccc3c2OCC3)C(F)(F)F)c2cnn(-c3cccc(C#N)c3)c2n1 (stereo not shown) [Example 29, 3-(4-{[4-(2,3-Dihydro-1-benzofuran-7-yl)-2-hydroxy-4-methyl-2-(trifluoromethyl)pentyl]amino}-6-ethyl-1H-pyrazolo[3,4-d]pyrimidin-1-yl)benzonitrile]"
4,< 100 nM,"CCc1nc(NCC(O)(CC(C)(C)c2cccc3c2OCC3)C(F)(F)F)c2cnn(-c3cccc(C(=O)OC)c3)c2n1 (stereo not shown) [Example 30, Methyl 3-(4-{[4-(2,3-dihydro-1-benzofuran-7-yl)-2-hydroxy-4-methyl-2-(trifluoromethyl)pentyl]amino}-6-ethyl-1H-pyrazolo[3,4-d]pyrimidin-1-yl)benzoate]"
